According to ChEMBL document CHEMBL3217516, “Library synthesis and cytotoxicity of a family of 2-phenylacrylonitriles and discovery of an estrogen dependent breast cancer lead compound” (Medchemcomm, 2011):

Tests used:
Type in all cases: functional
DU-145 [1] = experiment: Cytotoxicity against human DU145 cells at 100 uM after 72 hrs by MTT assay; conditions: DU-145, 72 h, read-out: GI
[2] = Cytotoxicity against human SJ-G2 cells at 100 uM after 72 hrs by MTT assay; conditions: SJ-G2, 72 h, read-out: GI
MCF7 [3] = experiment: Cytotoxicity against human MCF7 cells at 100 uM after 72 hrs by MTT assay; conditions: MCF7, 72 h, read-out: GI
[4] = Cytotoxicity against human H460 cells at 100 uM after 72 hrs by MTT assay; conditions: NCI-H460, 72 h, read-out: GI
HT-29 [5] = experiment: Cytotoxicity against human HT-29 cells at 100 uM after 72 hrs by MTT assay; conditions: HT-29, 72 h, read-out: GI
A2780 [6] = experiment: Cytotoxicity against human A2780 cells at 100 uM after 72 hrs by MTT assay; conditions: A2780, 72 h, read-out: GI
[7] = Cytotoxicity against human MIA cells at 100 uM after 72 hrs by MTT assay; conditions: read-out: GI
A-431 [8] = experiment: Cytotoxicity against human A431 cells at 100 uM after 72 hrs by MTT assay; conditions: A-431, 72 h, read-out: GI
SW480 [9] = experiment: Cytotoxicity against human SW480 cells at 100 uM after 72 hrs by MTT assay; conditions: SW480, 72 h, read-out: GI
[10] = Cytotoxicity against human BE(2)-C cells at 100 uM after 72 hrs by MTT assay; conditions: read-out: GI
A-431 [11] = experiment: Cytotoxicity against human A431 cells after 72 hrs by MTT assay; conditions: A-431, 72 h
[12] = Cytotoxicity against human BE(2)-C cells after 72 hrs by MTT assay
SW480 [13] = experiment: Cytotoxicity against human SW480 cells after 72 hrs by MTT assay; conditions: SW480, 72 h
HT-29 [14] = experiment: Cytotoxicity against human HT-29 cells after 72 hrs by MTT assay; conditions: HT-29, 72 h
[15] = Cytotoxicity against human H460 cells after 72 hrs by MTT assay; conditions: NCI-H460, 72 h
DU-145 [16] = experiment: Cytotoxicity against human DU145 cells after 72 hrs by MTT assay; conditions: DU-145, 72 h
[17] = Cytotoxicity against human SJ-G2 cells after 72 hrs by MTT assay; conditions: SJ-G2, 72 h
A2780 [18] = experiment: Cytotoxicity against human A2780 cells after 72 hrs by MTT assay; conditions: A2780, 72 h
[19] = Cytotoxicity against human MIA cells after 72 hrs by MTT assay
MCF7 [20] = experiment: Cytotoxicity against human MCF7 cells after 72 hrs by MTT assay; conditions: MCF7, 72 h

| SMILES | inhibition of growth at 100 µM (DU-145 [1]) [%] | inhibition of growth at 100 µM [2] [%] | inhibition of growth at 100 µM (MCF7 [3]) [%] | inhibition of growth at 100 µM [4] [%] | inhibition of growth at 100 µM (HT-29 [5]) [%] | inhibition of growth at 100 µM (A2780 [6]) [%] | inhibition of growth at 100 µM [7] [%] | inhibition of growth at 100 µM (A-431 [8]) [%] | inhibition of growth at 100 µM (SW480 [9]) [%] | inhibition of growth at 100 µM [10] [%] | GI50 (A-431 [11]) [µM] | GI50 [12] [µM] | GI50 (SW480 [13]) [µM] | GI50 (HT-29 [14]) [µM] | GI50 [15] [µM] | GI50 (DU-145 [16]) [µM] | GI50 [17] [µM] | GI50 (A2780 [18]) [µM] | GI50 [19] [µM] | GI50 (MCF7 [20]) [µM] |
| --- | --- | --- | --- | --- | --- | --- | --- | --- | --- | --- | --- | --- | --- | --- | --- | --- | --- | --- | --- | --- |
| N#CC(Cc1ccc[nH]1)c1ccc(Cl)c(Cl)c1 (stereo not given) | 24 | 33 | 84 | 55 | 51 | 63 | 20 | 44 | 34 | 42 |  |  |  |  |  |  |  |  |  |  |
| CCCC/C=C(\C#N)c1ccc(Cl)c(Cl)c1 |  |  |  |  |  |  |  |  |  |  | 88 | 73 | 68 | 53 | 100 | 87 | 70 | 24 | 95 | 49 |
| CCCCCCCCC/C=C(\C#N)c1ccc(Cl)c(Cl)c1 | 87 | 70 | 49 | 100 | 53 | 24 | 22 | 88 | 68 | 73 |  |  |  |  |  |  |  |  |  |  |
| N#C/C(=C/c1ccc2ccccc2c1)C(=O)c1ccc[nH]1 |  |  |  |  |  |  |  |  |  |  | < 10 | < 10 | < 10 | < 10 | < 10 | < 10 | < 10 | < 10 | < 10 | 12 |
| Cc1ccc(/C=C(/C#N)C(=O)c2ccc[nH]2)cc1 |  |  |  |  |  |  |  |  |  |  | < 10 | 11 | 14 | 14 | 11 | < 10 | 20 | 19 | 27 | 39 |
| N#C/C(=C/c1ccc(Cl)cc1)C(=O)c1ccc[nH]1 |  |  |  |  |  |  |  |  |  |  | 31 | 63 | 68 | 54 | 38 | 32 | 53 | 75 | 59 | 84 |
| N#C/C(=C/c1ccc([N+](=O)[O-])cc1)C(=O)c1ccc[nH]1 |  |  |  |  |  |  |  |  |  |  | < 10 | 19 | < 10 | < 10 | < 10 | < 10 | < 10 | 19 | < 10 | 19 |
| N#C/C(=C/c1ccc(Cl)c(Cl)c1)C(=O)c1ccc[nH]1 |  |  |  |  |  |  |  |  |  |  | < 10 | 14 | < 10 | < 10 | < 10 | < 10 | 10 | < 10 | < 10 | 14 |
| N#C/C(=C/c1ccc(O)cc1)C(=O)c1ccc[nH]1 |  |  |  |  |  |  |  |  |  |  | < 10 | < 10 | < 10 | < 10 | < 10 | < 10 | < 10 | < 10 | 11 | 15 |
| COc1ccc(/C=C(/C#N)C(=O)c2ccc[nH]2)cc1 |  |  |  |  |  |  |  |  |  |  | 13 | < 10 | < 10 | < 10 | 24 | < 10 | < 10 | < 10 | < 10 | 22 |
| N#C/C(=C\c1ccccc1)c1ccc(Cl)c(Cl)c1 | 36 | 72 | 79 | 36 | 56 | 62 | 61 | 71 | 67 | 47 |  |  |  |  |  |  |  |  |  |  |
| Cc1ccc(/C=C(\C#N)c2ccc(Cl)c(Cl)c2)cc1 |  |  |  |  |  |  |  |  |  |  | 1.8 | 2.2 | 2.3 | 1.6 | 2.1 | 2.2 | 2.1 | 2 | 2 | 2.2 |
| N#C/C(=C\c1ccc2ccccc2c1)c1ccc(Cl)c(Cl)c1 |  |  |  |  |  |  |  |  |  |  | 1.8 | 1.9 | 2.3 | 1.6 | 1.7 | 2.7 | 2.3 | 1.8 | 2.1 | 1.5 |
| N#C/C(=C\c1ccc(Cl)cc1)c1ccc(Cl)c(Cl)c1 |  |  |  |  |  |  |  |  |  |  | 4.3 | 4.1 | 5 | 2.5 | 4.8 | 12 | 6.1 | 4 | 4 | 4.3 |
| N#C/C(=C\c1ccc(Br)cc1)c1ccc(Cl)c(Cl)c1 |  |  |  |  |  |  |  |  |  |  | 20 | 21 | 22 | 20 | 21 | 26 | 22 | 20 | 21 | 16 |
